≈ marks a conversion by molar mass, not a printed value. Read-outs that look alike come from different tables or passages of the source.
Key:
yeast α-glucosidase = molecular target: T1, yeast α-glucosidase (Saccharomyces cerevisiae, UniProt P53341); experiment: α-Glucosidase inhibitory activity; assay type: biochemical, Saccharomyces cervisiae
T1 construct: purchased Sigma-Aldrich
Protocol: All thin layer chromatography analyses were performed at room temperature using pre-coated plates (MERCK, silica gel 60 F254 0.2 thickness). Detection of spots was done by viewing under UV light (254 and 366 nm). Open column chromatography was carried out using silica gel (230-400 mesh) and Sephadex LH-20. Nuclear magnetic resonance (NMR) data were obtained using Bruker spectrometers (400 and 500 MHz). Chemical shifts are expressed in parts per million (ppm).
α-Glucosidase inhibitory activity was determined as previously described by Tao et al. with modifications as detailed by Rengasamy et al.. Briefly, yeast α-glucosidase (0.1 Unit/mL) was dissolved in 0.1 M potassium phosphate buffer (pH 6.8), this was used as the enzyme solution. The control experiment contained the same reaction mixture, but the sample solution was replaced with the same volume of phosphate buffer. […] The determinations were carried out in triplicate. The percentage inhibition (%) was calculated using the following equation: % Inhibition = (Acontrol − Asample)/Acontrol × 100(1) where Acontrol is the absorbance of the control and Asample is the absorbance of the sample. The IC50, which is the concentration of the sample required to inhibit 50% of the enzyme was determined for each sample.

[1] = test system: Candida albicans (ATCC 10231); experiment: Antifungal microdilution bioassay (MIC); assay type: cell-based
Protocol: The antifungal activity of the crude methanol extract, fractions and isolated compounds were evaluated against Candida albicans (ATCC 10231) using the micro-dilution assay, modified for an antifungal assay. An overnight fungal culture was prepared in 10 mL yeast malt (YM) broth. Four hundred microliters of the overnight Candida culture were added to 4 mL of sterile saline solution. The absorbance was read at 530 nm and adjusted with sterile saline solution to match that of a […] McFarland standard solution. From this prepared stock, a 1:1000 dilution with sterile YM broth was prepared to give an approximately 10^6 cfu/mL culture. One hundred microlitres of the resuspended (in 70% aqueous acetone) crude extract, fractions (50 mg/mL) or compounds (1 mg/mL) were two-fold serially diluted with sterile distilled water, in duplicate down a 96-well microtitre plate. A similar 2-fold serial dilution of amphotericin B (Sigma, 2.5 mg/mL) was used as a positive control. Water, 70% aqueous acetone and fungal free broth were included as negative/solvent controls. The screening was done in triplicate and repeated twice for each extract, the MIC and MFC values were recorded.

[2] = test system: Klebsiella pneumoniae ATCC 13883; experiment: Antibacterial microdilution bioassay (MIC); assay type: cell-based; conditions: for MIC: Klebsiella pneumoniae
Protocol: (§1) Minimum inhibitory concentration (MIC) values for antibacterial activity of the crude methanol extract, fractions and isolated compounds were determined using the microdilution bioassay in a 96-well (Greiner Bio-one GmbH, Frickenhausen, Germany) microtitre plates. One hundred microlitres of the resuspended (in 70% aqueous acetone) crude extract, fractions (50 mg/mL) or compounds (1 mg/mL) was two-fold serially diluted with sterile distilled water, in duplicate down the microtitre plate for each of the four bacteria used. A similar two-fold serial dilution of neomycin (Sigma) (0.1 mg/mL) was used as a positive control against each bacterium. Water and 70% aqueous acetone were included as a negative/solvent controls. The screening was done in triplicate and repeated twice for each extract.

[3] = test system: Staphylococcus aureus ATCC 12600; experiment: Antibacterial microdilution bioassay (MIC); assay type: cell-based; conditions: for Antimicrobial MIC S.a.: n = 3
Protocol: as §1

[4] = test system: Bacillus subtilis ATCC 6051; experiment: Antibacterial microdilution bioassay (MIC); assay type: cell-based; conditions: for Antimicrobial MIC B.s.: n = 3
Protocol: as §1

[5] = test system: Escherichia coli ATCC 11775; experiment: Antibacterial microdilution bioassay (MIC); assay type: cell-based; conditions: for Antimicrobial MIC E.c.: n = 3
Protocol: as §1

[6] = molecular target: T2, human recombinant COX-2 enzyme (Homo sapiens, UniProt P35354); experiment: Cyclooxygenase (COX-2) inhibitory bioassay; assay type: biochemical; conditions: read-out: COX-2 inhibitory activity level
T2 construct: His6 (N); purchased Sigma-Aldrich; host or cells: Baculovirus overexpression system in Sf 21 cells
T2 sequence (P35354 18-604): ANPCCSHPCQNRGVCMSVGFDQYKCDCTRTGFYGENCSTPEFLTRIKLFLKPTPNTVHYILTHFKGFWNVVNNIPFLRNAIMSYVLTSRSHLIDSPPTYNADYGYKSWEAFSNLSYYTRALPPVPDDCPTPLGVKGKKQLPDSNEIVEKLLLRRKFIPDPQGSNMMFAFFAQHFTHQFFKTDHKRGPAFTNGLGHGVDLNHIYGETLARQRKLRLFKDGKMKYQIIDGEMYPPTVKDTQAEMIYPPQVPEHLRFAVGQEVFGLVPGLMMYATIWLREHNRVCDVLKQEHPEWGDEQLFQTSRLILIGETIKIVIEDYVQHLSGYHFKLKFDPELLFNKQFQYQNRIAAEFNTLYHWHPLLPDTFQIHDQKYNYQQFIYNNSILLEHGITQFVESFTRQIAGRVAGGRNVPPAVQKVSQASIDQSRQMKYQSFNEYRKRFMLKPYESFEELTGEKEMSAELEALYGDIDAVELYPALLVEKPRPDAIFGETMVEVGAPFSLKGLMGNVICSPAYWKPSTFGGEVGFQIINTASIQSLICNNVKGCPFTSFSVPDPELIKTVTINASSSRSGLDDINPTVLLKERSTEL

[7] = molecular target: T3, AChE (isolated from electric eels) (Electrophorus electricus, UniProt O42275); experiment: biochemical
T3 construct: AChE (isolated from electric eels) (type VI-S lyophilized powder); purchased Sigma-Aldrich type VI-S lyophilized powder; host or cells: isolated from electric eels
T3 sequence (O42275 24-633): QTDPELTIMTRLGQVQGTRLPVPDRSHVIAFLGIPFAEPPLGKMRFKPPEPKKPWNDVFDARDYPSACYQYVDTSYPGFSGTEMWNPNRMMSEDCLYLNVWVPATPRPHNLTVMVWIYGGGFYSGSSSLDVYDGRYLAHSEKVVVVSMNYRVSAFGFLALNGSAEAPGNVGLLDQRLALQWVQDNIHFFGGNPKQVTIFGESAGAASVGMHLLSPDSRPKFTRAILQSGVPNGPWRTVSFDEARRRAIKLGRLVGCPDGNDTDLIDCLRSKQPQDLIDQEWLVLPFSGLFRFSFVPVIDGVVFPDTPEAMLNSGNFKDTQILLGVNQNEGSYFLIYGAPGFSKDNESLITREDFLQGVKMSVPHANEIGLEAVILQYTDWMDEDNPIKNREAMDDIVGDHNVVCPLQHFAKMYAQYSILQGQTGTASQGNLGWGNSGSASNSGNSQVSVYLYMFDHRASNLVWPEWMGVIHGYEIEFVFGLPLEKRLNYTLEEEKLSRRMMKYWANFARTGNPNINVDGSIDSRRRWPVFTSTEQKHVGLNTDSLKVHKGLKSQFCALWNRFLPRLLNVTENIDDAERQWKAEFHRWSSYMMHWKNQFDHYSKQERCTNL
Protocol: Inhibition of AChE by the crude methanol extract, fractions and isolated compounds was done as described by Ellman et al. with some modifications. The acetylcholinesterase enzyme activity was measured by spectrophotometric observation of the increase in a yellow colour produced from thiocholine when it reacts with the dithiobisnitrobenzoate ion. AChE (isolated from electric eels) (type VI-S lyophilized powder) was obtained from Sigma-Aldrich. The assay was carried out in a 96-well microtitre plate. The crude methanol extract, fractions and isolated compounds were at initial concentrations of 10 mg/mL (crude extract and fractions) and 1 mg/mL (pure compounds). The increase in absorbance due to the spontaneous hydrolysis of the substrate was corrected by subtracting the ratio of reaction before adding the enzyme from the rate after adding the enzyme (0.2 U/mL). Percentage of inhibition was calculated by comparing the reaction rates for the sample to the negative control. […] The IC50 values of extracts and compounds were calculated using Graph Pad Prism (version 5.0) statistical software programme for Windows (GraphPad Software Inc.).

[8] = read-out: α-Glucosidase inhibitory activity Percentage inhibition
[9] = ATCC10231, read-out: Antimicrobial MIC C.a.
[10] = ATCC13883, Klebsiella pneumonia, n = 3, read-out: Antimicrobial MIC K.p.
[11] = ATCC12600, n = 3, read-out: Antimicrobial MIC S.a.
[12] = ATCC6051, n = 3, read-out: Antimicrobial MIC B.s.
[13] = ATCC11775, n = 3, read-out: Antimicrobial MIC E.c.
[14] = ATCC10231, n = 3, read-out: Antimicrobial MIC C.a.
[15] = pure compounds at 300 µg/mL, mean ± standard error, read-out: AChE inhibitory activity Percentage inhibition
[16] = pure compounds at 300 µg/mL, mean ± standard error

T1 sequence (P53341 whole entry): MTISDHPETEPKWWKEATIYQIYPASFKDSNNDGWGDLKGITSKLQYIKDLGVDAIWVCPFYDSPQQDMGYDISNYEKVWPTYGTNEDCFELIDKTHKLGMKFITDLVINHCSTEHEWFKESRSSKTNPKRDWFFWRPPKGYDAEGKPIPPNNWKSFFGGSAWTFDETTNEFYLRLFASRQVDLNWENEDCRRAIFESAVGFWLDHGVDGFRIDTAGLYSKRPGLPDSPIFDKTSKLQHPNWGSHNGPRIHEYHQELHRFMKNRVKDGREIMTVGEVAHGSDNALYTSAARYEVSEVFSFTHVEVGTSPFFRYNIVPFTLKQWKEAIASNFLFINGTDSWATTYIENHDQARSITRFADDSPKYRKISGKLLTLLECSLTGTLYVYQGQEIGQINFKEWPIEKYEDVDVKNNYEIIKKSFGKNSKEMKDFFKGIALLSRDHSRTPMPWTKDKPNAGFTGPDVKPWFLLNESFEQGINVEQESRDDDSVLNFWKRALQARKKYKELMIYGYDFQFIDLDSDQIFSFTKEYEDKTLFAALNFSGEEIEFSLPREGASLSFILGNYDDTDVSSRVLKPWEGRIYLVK

C[C@H]1O[C@H](O[C@H]2[C@H](O)[C@@H](O)[C@@H](O[C@H]3[C@H](O)[C@@H](O)C(O)O[C@@H]3CO)O[C@@H]2CO)[C@H](O)[C@@H](O)[C@@H]1N[C@H]1C=C(CO)[C@@H](O)[C@H](O)[C@H]1O (stereo partly shown) [Acarbose, acarbose, reference compound]
inhibition at 250 µg/mL (yeast α-glucosidase; [8]): 83.6 ± 2.6%

C[C@@H]1[C@H](O)[C@@H](C)/C=C/C=C/C=C/C=C/C=C/C=C/C=C/[C@H](O[C@@H]2O[C@H](C)[C@@H](O)[C@H](N)[C@@H]2O)C[C@@H]2O[C@](O)(C[C@@H](O)C[C@@H](O)[C@H](O)CC[C@@H](O)C[C@@H](O)CC(=O)O[C@H]1C)C[C@H](O)[C@H]2C(=O)O [Amphotericin B, amphotericin B, reference compound]
MIC [1, 9]: 9.77 µg/mL (≈ 10.6 µM)

CC1OC(Oc2c(-c3cc(O)c(O)c(O)c3)oc3cc(O)cc(O)c3c2=O)C(O)C(O)C1O (stereo not shown) [Myricetrin-3-O-rhamnoside (1), Myricetrin-3-O-rhamnoside]
MIC ([2]; ATCC13883, read-out: Antimicrobial MIC K.p.): 250 µg/mL (≈ 538 µM) | MIC ([3]; ATCC12600, read-out: Antimicrobial MIC S.a.): 250 µg/mL (≈ 538 µM) | MIC ([4]; ATCC6051, read-out: Antimicrobial MIC B.s.): 250 µg/mL (≈ 538 µM) | MIC ([5]; ATCC11775, read-out: Antimicrobial MIC E.c.): 250 µg/mL (≈ 538 µM) | inhibition at 25 µg/mL [6]: < 20% | MIC [1, 9]: 250 µg/mL (≈ 538 µM) | IC50 [7]: 140 µM | inhibition at 300 µg/mL ([7]; read-out: AChE inhibitory activity Percentage inhibition): 54.3 ± 1.1% | IC50 (yeast α-glucosidase): 170 µM | inhibition at 300 µg/mL (yeast α-glucosidase; [8]): 89.1 ± 5.3%

O=c1c(O)c(-c2ccc(O)c(O)c2)oc2cc(O)cc(O)c12 [Quercetin (3), 3,3', 4',5,7-pentahydroxyflavone]
MIC [2, 10]: 250 µg/mL (≈ 827 µM) | MIC [3, 11]: > 250 µg/mL | MIC [4, 12]: 30 µg/mL (≈ 99.3 µM) | MIC [5, 13]: > 250 µg/mL | MIC [1, 14]: 20 µg/mL (≈ 66.2 µM) | inhibition at 300 µg/mL [7, 15]: 56.6 ± 0.3% | inhibition at 300 µg/mL (yeast α-glucosidase; [8]): 67.1 ± 4.2%

O=C(/C=C/c1ccc(O)cc1)NCCc1c[nH]c2ccc(O)cc12 [Trans-N-(p-coumaroyl) serotonin (4), (E)-N-(4-hydroxycinnamoyl)-5-hydroxytryptamine]
MIC [2, 10]: 250 µg/mL (≈ 776 µM) | MIC [3, 11]: 250 µg/mL (≈ 776 µM) | MIC [4, 12]: 250 µg/mL (≈ 776 µM) | MIC [5, 13]: 250 µg/mL (≈ 776 µM) | MIC [1, 14]: 130 µg/mL (≈ 403 µM) | IC50 ([7]; mean ± standard error, read-out: AChE inhibitory activity IC50 (converted)): 46.5 µM | inhibition at 300 µg/mL [7, 15]: 72.6 ± 4.9% | inhibition at 300 µg/mL ([7]; pure compounds at 300 µg/mL, read-out: AChE inhibitory activity level): 70 to 100% | IC50 (yeast α-glucosidase): 16.4 µM | inhibition at 300 µg/mL (yeast α-glucosidase; [8]): 97.3 ± 3.2%

Quercetin-3-O-rhamnoside [Quercetin-3-O-rhamnoside (2)]
Antimicrobial MIC K.p. ([2]; Klebsiella pneumonia, n = 3): >250 µg/mL | Antimicrobial MIC S.a. [3]: >250 µg/mL | Antimicrobial MIC B.s. [4]: 130 µg/mL | Antimicrobial MIC E.c. [5]: >250 µg/mL | Antimicrobial MIC C.a. ([1]; n = 3): 250 µg/mL | AChE inhibitory activity Percentage inhibition [7, 16]: 53.3 ± 1.0 b,c | α-Glucosidase inhibitory activity Percentage inhibition (yeast α-glucosidase; [16]): 47.0 ± 1.7 a

neomycin [reference compound]
Antimicrobial MIC K.p. ([2]; Klebsiella pneumonia, n = 3): 0.8 µg/mL | Antimicrobial MIC S.a. [3]: 1.6 µg/mL | Antimicrobial MIC B.s. [4]: 1.6 µg/mL | Antimicrobial MIC E.c. [5]: 0.8 µg/mL
